From PMC4624270 (Journal of the American Chemical Society, 2015) come the findings set out here.

This experiment has as its target PikDH2 (PikKR2-DH2 didomain) (Streptomyces venezuelae, UniProt Q9ZGI5). As to the kind of experiment: time-dependent inactivation, Kitz-Wilson plot. Type of experiment: biochemical. To be noted: read-out: KI; covalent; mechanism-based irreversible inhibitor; substrate 2a; 10 to 40 μM inhibitor.

Sequence of PikDH2 (PikKR2-DH2 didomain) (Q9ZGI5 3579-4365): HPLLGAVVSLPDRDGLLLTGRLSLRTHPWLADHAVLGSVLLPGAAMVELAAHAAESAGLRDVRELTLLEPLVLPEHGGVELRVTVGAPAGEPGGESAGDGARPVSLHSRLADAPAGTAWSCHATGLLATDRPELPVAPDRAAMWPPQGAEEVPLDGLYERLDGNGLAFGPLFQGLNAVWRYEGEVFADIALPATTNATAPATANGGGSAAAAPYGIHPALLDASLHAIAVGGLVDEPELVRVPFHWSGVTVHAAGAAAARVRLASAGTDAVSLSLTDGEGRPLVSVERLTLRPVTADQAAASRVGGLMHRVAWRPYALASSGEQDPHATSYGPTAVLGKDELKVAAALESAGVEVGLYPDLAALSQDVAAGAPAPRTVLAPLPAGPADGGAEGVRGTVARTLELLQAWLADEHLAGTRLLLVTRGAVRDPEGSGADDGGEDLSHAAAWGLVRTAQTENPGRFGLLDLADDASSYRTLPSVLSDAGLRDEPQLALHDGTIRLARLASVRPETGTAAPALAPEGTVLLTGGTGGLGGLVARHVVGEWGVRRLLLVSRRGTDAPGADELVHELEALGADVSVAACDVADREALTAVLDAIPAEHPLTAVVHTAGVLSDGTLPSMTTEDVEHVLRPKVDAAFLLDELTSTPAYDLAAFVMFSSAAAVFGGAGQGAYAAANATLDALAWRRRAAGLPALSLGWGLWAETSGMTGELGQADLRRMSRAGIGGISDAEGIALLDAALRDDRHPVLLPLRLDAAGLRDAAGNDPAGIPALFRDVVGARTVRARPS

Consider `CCCCCCC#CCC(=O)SCCNC(C)=O` [compound 6, 3-Decynoyl-N-acetylcysteamine], for which the KI (inactivation) stood at 156 ± 34 µM.
